Assay results published in patent US5660992A, “Sialic acid/fucose based assay reagents and assay methods” (Glycomed Incorporated, priority 1995, dated 1997).

How the values were obtained:
[1] = molecular target: T1, L-selectin IgG chimera (Homo sapiens, UniProt P14151); test: ELISA: blocking of L-selectin IgG chimera binding to 2,3sLex glycolipid; conditions: FIG. 5 and FIG. 6; several concentrations
T1 sequence (P14151 39-332 limits assumed): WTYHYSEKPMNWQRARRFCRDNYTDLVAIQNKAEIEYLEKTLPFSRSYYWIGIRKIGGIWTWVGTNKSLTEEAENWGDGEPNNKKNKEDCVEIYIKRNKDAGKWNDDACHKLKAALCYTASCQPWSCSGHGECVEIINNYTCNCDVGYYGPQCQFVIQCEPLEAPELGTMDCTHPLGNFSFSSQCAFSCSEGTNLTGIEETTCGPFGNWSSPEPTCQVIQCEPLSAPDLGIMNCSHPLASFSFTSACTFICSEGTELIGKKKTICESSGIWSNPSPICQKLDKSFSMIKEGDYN
Excerpt: FIG. 5 is a graph showing the results of Elisa assays carried out to determine the ability of three different compounds to block the binding of 2,3,sialyl-Le^x to L-selectin IgG chimera. The compounds tested were GM 1222, GM 1279 and GM 1398. The results are expressed as per cent of control binding.
FIG. 6 is a graph showing the results of Elisa assays carried out to determine the ability of GM 1221 to block the binding of 2,3,sialyl-Le^x to L-selectin IgG chimera. The results are expressed as per cent of control binding.
An ELISA assay was employed that uses recombinant fusion proteins composed of extracellular portions of the human selectins joined to human immunoglobulin heavy chain CH3, CH2, and hinge regions. See, for example, Walz et al., Science (1990) 250:1132; Aruffo et al., Cell (1991) 67:35; Aruffo et al., Proc. Natl. Acad. Sci. USA (1992) 89:2292. […]
The positive control is the signal produced by the soluble receptor when it is allowed to react with 2,3sLex glycolipid in the microtiter wells in the absence of any inhibitor. […] The signal produced by the receptor that had been previously treated with an inhibitor (recorded as O.D.), was divided by the signal produced by the positive control and multiplied by 100 to calculate the % receptor bound to the well, or as expressed in the figures, the per cent of control binding. […]

[2] = tested on: neutrophil migration to the peritoneal cavity; test: Murine thioglycollate induced peritonitis model; format: in vivo, mice; conditions: FIG. 7; for inhibition of neutrophil migration into the peritoneum: female Swiss Webster mice, compound in tail vein, thioglycollate i.p., cells counted after three hours
Method: Mice were injected with saline alone (sal/-), thioglycollate and phosphate buffered saline (TG/PBS) or thioglycollate and GM 1221 or GM 1398 (TG/GM 1221 or TG/1398), and the number of neutrophils in the peritoneal cavity measured.
The efficaciousness of GM 1221, and GM 1398 was shown using a murine thioglycollate induced peritonitis model. The assay. materials and methods are known in the art, or are generally described by Lewinsohn, D. et al., J. Immun., 138:4313-4321 (1987), or Watson, S. et.al., Nature 349:164-166 (1991).
This assay measures the ability of the compounds to inhibit neutrophil migation to the peritoneal cavity, the migration being initiated by the presence of thioglycollate in the peritoneal cavity. Thioglycollate is a known and effective inflammatory agent that causes neutrophil migration into the mouse peritoneum when it is administered intraperitoneally. Lewinsohn, D. et al., J. Immun. (1987) 138:4313-4321.
Briefly, female Swiss Webster mice weighing about 25 grams were injected in the tail vein with 200 ul of phosphate buffered saline (PBS) with or without the appropriate compound. The pH of the solutions was adjusted to neutrality by the addition of either NaOH or HCL and sterilized by filtration through a 0.2 u filter.
Immediately following injection with the appropriate compound or PBS, the mice were injected intraperitoneally with 1 ml of thioglycollate medium prepared as described by the manufacturer, BBL. Three hours following injection of the thioglycollate solution the mice were sacrificed by CO2 asphyxiation, and the number of cells in the peritoneum removed by lavage with 5 ml of heparinized (5 U/ml) 0.9% sodium chloride solution containing 0.1% bovine serum albumin. Cell number was determined using a Coulter Counter. The cells were prepared for counting by diluting the lavage fluid with 1:50 of a commercial physiological isotonic solution, Isoton II, and the cells-lysed by adding S/P Lysing and Hemoglobin Reagent (1:100 final dilution). Cell nuclei were counted in a sized window with lower and upper limits set at 3.9 and 5.7 um, respectively.

inhibition of L-selectin binding to 2,3sLex glycolipid (per cent of control binding) [1]	SMILES	inhibition of neutrophil migration into the peritoneum [2]	additional inhibition of neutrophil migration relative to GM 1221 ([2]; same mouse peritonitis model, comparison with GM 1221)
inhibits L-selectin binding	CC(OCCCCCCOC1O[C@@H](C)[C@@H](O)[C@@H](O)[C@@H]1O)C(=O)O (stereo partly shown) [GM 1221]	inhibit neutrophil migration into the peritoneum	–
–	CC(=O)N[C@H]1[C@H]([C@H](O)[C@H](O)CO)O[C@@](OCCCCCCO[C@@H]2O[C@@H](C)[C@@H](O)[C@@H](O)[C@@H]2O)(C(=O)O)C[C@@H]1O [GM 1398, 1-O-α-Neu5Ac-(6-O-α-L-Fucopyranosyl)-Hexane]	inhibit neutrophil migration into the peritoneum	about 30%
